Results as given in US10080748B2, “Use of flap inhibitors to reduce neuroinflammation mediated injury in the central nervous system” (Bioscience Pharma Partners, LLC, priority 2014, dated 2018).

Experiments:
[1] = test system: rats subjected to FPI (TBI model); experiment: Volume of cell death 72 hours after TBI (rat FPI); type: in vivo; conditions: 6 mg/kg IV 30 minutes prior to TBI; measured 72 hours later
Method: (§1) Craniotomy and lateral fluid percussion injury (FPI) were performed using a previously validated and published procedure. Farias S, et al. J. Neurotraum, 26, 1977-1986, 2009; Frey L. C. et al. J. Neurosci. Methods 177, 267-272, 2009. Throughout the specification animals subjected to this protocol are referred to as having a TBI since this treatment protocol is a TBI model. Briefly, rats were anesthetized with 3-5% isoflurane, isosol, VEDCO Inc., St. Joseph, Mo., via nose cone and mounted in a stereotaxic head frame. A 3 millimeter (mm) craniotomy was created and centered at 3 mm caudal to bregma and 3.5 mm left of the sagittal suture, keeping the exposed dura intact. One steel support screw was embedded in the skull on the contralateral side. A Luer-Lock hub with an inside diameter of 3.5 mm was centered over the craniotomy and bonded to the skull with cyanoacrylate adhesive and capped. Dental acrylic, Snap, Parka, Inc., Edgewood, N.J., was poured around the huh and screw. After the acrylic hardened antibiotic ointment was applied around the cap and the animals were returned to their cages. […] Moistened food pellets were provided after injury, and all animals were monitored daily for well-being and weight changes. […]
Rats were administered a single-dose of the FLAP inhibitor MK-886, 6 mg/kg IV by tail vein, 30 minutes prior to TBI. […] Results are expressed as the average±SEM. […]

[2] = cited from earlier work
[3] = test system: rats subjected to FPI (TBI model); experiment: Radial arms water maze (RAWM) after TBI (rat FPI); type: in vivo
Method: Craniotomy and lateral fluid percussion injury (FPI) were performed using a previously validated and published procedure. Farias S, et al. J. Neurotraum, 26, 1977-1986, 2009; Frey L. C. et al. J. Neurosci. Methods 177, 267-272, 2009. Throughout the specification animals subjected to this protocol are referred to as having a TBI since this treatment protocol is a TBI model. Briefly, rats were anesthetized with 3-5% isoflurane, isosol, VEDCO Inc., St. Joseph, Mo., via nose cone and mounted in a stereotaxic head frame. A 3 millimeter (mm) craniotomy was created and centered at 3 mm caudal to bregma and 3.5 mm left of the sagittal suture, keeping the exposed dura intact. One steel support screw was embedded in the skull on the contralateral side. A Luer-Lock hub with an inside diameter of 3.5 mm was centered over the craniotomy and bonded to the skull with cyanoacrylate adhesive and capped. Dental acrylic, Snap, Parka, Inc., Edgewood, N.J., was poured around the huh and screw. After the acrylic hardened antibiotic ointment was applied around the cap and the animals were returned to their cages. The next day, approximately 15-20 hours later, animals were anesthetized with isoflurane in an induction chamber, immediately connected to the FPI apparatus, and received a 20 millisecond (ms) pulse of pressurized sterile saline at 2.7 atmospheres (atm) of pressure to simulate a moderate severity impact on the intact dural surface through the craniotomy before awakening from anesthesia. […] All animals received a subcutaneous injection of the analgesic, buprenorphine, 0.05 milligram/kilogram (mg/kg) Buprenex, prior to craniotomy, and subsequent injections every 12 hours for two days. Moistened food pellets were provided after injury, and all animals were monitored daily for well-being and weight changes.
The indole FLAP inhibitor MK-886 was prepared at a dose of 2.5 milligram/milliliter (mg/ml), dissolved in dimethyl sulfoxide (DMSO) and then diluted with 0.9% saline to 10% DMSO. The rats were briefly anesthetized with 3-3.5% isoflurane and either […] at a dose of 6 mg/kg or vehicle was administered intravenously (IV) by tail vein injection. […]
The radial arms water maze (RAWM) consists of six 50 centimeter (cm) radial arms emanating from a circular area in a 160 cm diameter tank of 20.5° C. water, surrounded by 4 walls, each with a unique pattern. […] The start arm for each trial was determined in a pseudorandom fashion with three randomized sequences of the live non-goal arms. […] Videos for each of the 30 trials per animal were analyzed using Topscan (Cleversys Inc.) tracking software for errors and perseverance duration. […]
All data shown are mean+/−standard error of the mean unless otherwise noted. Results were analyzed in SPSS 20 (IBM) or Prism 5.0 (GraphPad). […]

[4] = test system: rats subjected to FPI (TBI model); experiment: Hippocampal long-term potentiation (LTP) in slices four days after TBI (rat FPI); type: in vivo
Method: as §1
Four days after FPI or at the times indicated in the figures for CHI model animals were sacrificed and the brains were rapidly removed and immersed in ice-cold, sucrose containing cutting buffer (87 mM NaCl, 2.5 mM KCl, 7 mM MgCl2, 0.5 mM CaCl2, 1.25 mM NaH2PO4, 25 mM D-glucose, 35 mM sucrose, and 25 mM NaHCO3) for 40-60 seconds to cool the interior of the brain. […] A bipolar tungsten stimulating electrode was placed in the Schaffer collateral (SC) pathway to evoke synaptic field excitatory postsynaptic potentials (fEPSPs) recorded in the stratum radiatum using a nearby glass micropipette filled with aCSF. […]

Question: What does the source list for `CC(C)c1ccc2c(c1)c(SC(C)(C)C)c(CC(C)(C)C(=O)O)n2Cc1ccc(Cl)cc1` [MK-886, 1-[(4-Chlorophenyl)methyl]-3-[(1,1-dimethylethyl)thio]-α,α-dimethyl-5-(1-methylethyl)-1H-Indole-2-propanoic acid]?
Answer: cell death induced by TBI [1]: significant reductions in cell death; plasma protein binding [2]: high; initial task learning versus vehicle ([3]; Day 1, 15 swim trials, within sham group or within TBI group): no significant differences; errors per swim, last five swim trials of the reversal task ([3]; TBI animals, injection 30 minutes post-injury, Day 2): 1.26+/−0.700; perseverance for the previous goal arm, swim 1 to swim 3 of reversal task ([3]; TBI rats, injection 30 minutes post-injury, Day 2): spent less time in the previous goal arm by swim 3; errors per swim, last five swim trials of the reversal task ([3]; sham animals, injection 30 minutes post-injury, Day 2): 0.850+/−0.583; LTP, % of control fEPSP slope at 58-60 min ([4]; 30 minutes post-injury): 256.13+/−8.527%; LTP, % of control fEPSP slope at 58-60 min ([4]; 30 minutes pre-injury): 242.75+/−76.94%; LTP, % of control fEPSP slope at 58-60 min ([4]; 60 minutes post-injury): 145.46+/−18.30
